The values below come from US20220220100A1 (SOLUTIA CANADA INC., priority 2019, published 2022).

Common to all, as to format: physicochemical
A short description of data set [1]: Photostability: xenon arc weathering of chromophore solutions, LCMS analysis. Conditions: for Ketone (%) / Minus-2HF (%) / Minus-HF (%) / Sulfone (%) / Chromophore Remaining (%): xenon arc, 82° C. bp; for Ketone (%) / Minus-2HF (%) / Minus-HF (%) / Sulfone (%): linearly interpolated to 0.5 MJ/m2 @ 340 nm; for Chromophore Remaining (%): linearly interpolated to 0.5 MJ/m2 @ 340 nm of exposure energy; for Photostability (in words): weathering experiments. From the text: Photostability (resistance to light-induced degradation) may be measured by the amount of time required for the compound, or a material comprising the compound, to degrade to a certain point under light exposure. The light exposure may be constant, or cyclic. The light transmittance or absorbance of the compound, or material comprising the compound, may be determined at both a light state and dark state prior to testing, to determine a contrast ratio. During testing, the contrast ratio may be monitored (periodically or continually), the compound or material may be determined to have failed when the contrast ratio falls outside, or below, a selected range, or when the contrast ratio decreases to a percentage of the original contrast ratio. Photostability may also be expressed with reference to a light source or with reference to a type of light.
Chromophore solutions in Rhodiasolv IRIS were prepared at 1 to 10 wt % loading. Solutions were prepared in a glovebox by charging the chromophore and Rhodiasolv IRIS to a trace-clean vial, and the solution was stirred on a hotplate at 90° C. for 2-24 hours. After cooling, the chromophore solution was injected into glass weathering cells and the fill and vent ports were sealed with a thin disc of Kalrez (FFKM Perfluorinated Elastomer) and secured with a clamp and set-screw. The weathering cells were filled and sealed inside the glove box.
Measurement of Photostability
A. Fabrication of cuvettes. Two holes of 0.8 mm diameter were drilled at opposite ends in a 75×50 mm piece of float glass using a diamond drill bit in a rotary tool. The drilled glass and a matching piece of undrilled glass were then cleaned using hot soapy water, rinsed with deionized water and acetone and then dried with compressed air. A 5 mm wide frame was cut from a sheet of 50 μm thickness EVAL EF-F using a laser engraver. The EVAL frame was placed around the perimeter of one sheet of glass and sandwiched by the second sheet of glass. The glass-EVAL-glass sandwich was secured with tape and heated under vacuum (10 mmHg) for 30 minutes at 170° C. in a vacuum bag. After cooling, a third piece of float glass was PVB laminated to the non-drilled side of the sealed glass cells using Trosifol UV Extra Protect B150 PVB (400 nm UV cut-off).
B. Xenon arc weathering protocol. Devices were exposed to simulated weathering conditions inside a Xe-3-HS xenon arc chamber, manufactured by Q-labs Inc. The samples were weathered according to the following table. The devices were exposed to these conditions continuously, with no dark or spray cycles included.
C. Analysis of weathered chromophore solutions by LCMS. The set-screws, metal clamps and Kalrez plugs were removed from the cuvette to expose the fill port. A 5 mL plastic syringe (NORM-JECT®) equipped with a tip (Precision Tips, 0.010″ RED) was inserted into one fill port and the chromophore solution was withdrawn from the cuvette. The chromophore solution was then injected into a 2 mL amber vial (part number 5182-0716, Agilent Technology) prefilled with 1.5 mL LC-MS grade acetonitrile (HiPerSolbe CHROMANORM Acetonitrile, VWR BDH Chemicals). An aliquot of the acetonitrile solution (2 μL) was injected into the LC-MS system (Agilent Infinity 1290 LC-MS system with diode array detector) through an autosampler mechanism. Species in the injected sample were separated through a reverse phase column (Zorbax SB-C18, 2.1×50 mm, 1.8 μm, operated at 40° C.), using a mixture of acetonitrile (mixed with 1% formic acid v/v ratio), methanol (HiPerSolbe CHROMANORM Methanol, VWR BDH Chemicals) and water (HiPerSolbe CHROMANORM Water, VWR BDH Chemicals) as mobile phase.

Data set [2] is described as follows: Photostationary state (PSS) and lambda max under simulated sunlight (solar simulator). Conditions: for PSS (SS): absorbance at photostationary state, simulated sunlight (solar simulator), 2×10^−5 M solution; for λmax (nm): peak in the visible range, ring-closed (dark) state. From the text:
The term “photostationary state” (PSS) refers to an equilibrium state of a compound or material where the rate of the ring closing (forward) reaction is equal to the rate of the ring-opening reaction, when irradiated with light in a given region of the spectrum. In other words, the ratio of the ring-open isomer to the ring-closed isomer is at an equilibrium. PSS may be expressed with reference to a light source, or with reference to a type of light, for example, QUV, Xenon-arc lamp, Q-SUN, natural or filtered sunlight, UV, VIS, IR, NIR, full spectrum or the like, or with reference to a particular wavelength or range of wavelengths, or in the presence or absence of a filter. Some ring-open and ring-closed isomers may undergo isomerization from one to the other in response to different wavelengths of light. If a wavelength of light is used where only one of the isomers absorbs, irradiation results in complete isomerization to the other form. 254 nm, 313 nm or 365 nm light are commonly used in studies of UV-absorbing isomers, but this may not be representative of the PSS under other light conditions that include the visible spectrum such as natural or simulated sunlight (“full spectrum” light) and/or with filters that block a portion of the UV component of the light. For example, in a ring-closed (dark) state, the magnitude of the maximum absorbance in the visible range may change with the light source (FIG. 1). The wavelength at this peak in the visible range may be referred to as lambda max, or λmax. […] When full spectrum light from a solar simulator (Xenon arc lamp) is used as a light source (line B), a balance is achieved between the ring-closed (dark) state induced by the UV component, and a ring-open (faded) state induced by the visible component of the light. Inclusion of a UV blocking layer in the light path (line A) may reduce the UV component of the light, and the ring-opening reaction induced by the visible light component becomes more prominent. […] Where desired, the ratio of ring-open and ring-closed isomers at a PSS may be quantified by ^1H NMR spectroscopy, such as described in U.S. Pat. No. 7,777,055. In various embodiments, compounds with an increased absorbance at a photostationary state (PSS), or increased contrast ratio, are an improvement over other diarylethene compounds. A compound with a greater absorbance in the visible range can be used in lesser quantities in a formulation or material to achieve a desired contrast ratio, whereas a compound with a lower absorbance at a PSS may need a higher concentration to achieve a desired contrast ratio.
Photostationary State (PSS)
(§1) UV/Vis spectra were obtained using an OceanOptics™ Spectrophotometer. A 2×10^−5 M solution of compound in solvent was prepared, and photofaded using visible light until absorption in the visible region of the spectrum stabilized. The sample was then irradiated with simulated sunlight (QSUN SS-150 Solar Simulator with xenon arc lamp) until the absorption spectrum stabilized. To obtain PSS in the presence of a UV blocking film, a second sample was prepared and irradiated as described, with a UV blocking film inserted in the light path when irradiating.

Data set [3] can be described thus: UV/Vis absorbance at 400 nm and Yellowness Index of the ring-open isomer. Conditions: for Abs @ 400 nm, RO (Absorption of ring-open isomer at 400 nm): 2×10^−5 M solution, 1 cm pathlength cuvette.
Description: In addition to the above, chromophores should have acceptable colour for both the ring-opened and ring-closed isomers. For example, the ring-open isomer of the chromophore should have a Yellowness Index (YI) of less than about 10 and an absorbance at 400 nm, as measured for a 2×10^−5 M solution in a 1 cm pathlength cuvette. For the ring-closed isomer of the chromophore, the lambda max should be between about 475 nm and 700 nm, tunable according to desired colour and number of chromophores in the composition.
as §1

Data set [4] can be described thus: Oxidation potential of ring-closed and ring-open isomers. Conditions: no unit printed in table (V relative to Ag/AgCl). An excerpt: In various embodiments, at a PSS, some of the chromophore will be in the ring-closed isomer, with a small, but non-zero portion of ring-open isomer. The oxidation potential of a ring-open isomer may be more anodic than the oxidation potential of a ring-closed isomer. Exposure to a potential that is too far beyond what is necessary to oxidize the ring-closed isomer may result in oxidation of the ring-open isomer, which may be irreversible and result in electrochemically-induced degradation of the chromophore.
Thus, in various embodiments, an anodic chromophore may have an oxidation potential of from about 0.4 V to 1.2 V for the ring-closed isomer and about 1.0 V to 2.5 V for the ring-open isomer relative to an Ag/AgCl reference electrode. In various embodiments, the oxidation potential for the ring-open isomer is about 250 mV more anodic than the oxidation potential for the ring-closed isomer. For example, the oxidation potential may be about 260 mV, about 280 mV, about 300 mV, about 320 mV, about 340 mV, about 360 mV, about 380 mV, about 400 mV, about 420 mV, about 440 mV, or about 460 mV more anodic than the oxidation potential for the ring-closed isomer.

Where [5] appears, read: 1 wt %, interpolated to 0.5 MJ/m^2 of energy exposure at 340 nm.

For the compound `COc1cc2oc(-c3ccc(C(C)(C)C)cc3)c(C3=C(c4cc(-c5cccs5)sc4-c4cccs4)C(F)(F)C(F)(F)C3(F)F)c2cc1OC` [Chromophore S193, 3-(2-([2,2′:5′,2″-terthiophen]-3′-yl)-3,3,4,4,5,5-hexafluorocyclopent-1-en-1-yl)-2-(4-(tert-butyl)phenyl)-5,6-dimethoxybenzofuran], in data set [1] (3 wt % in Rhodiasolv IRIS), the “Ketone (%)” value came out at 0.0%, the “Minus-2HF (%)” value was 2.1%, the “Minus-HF (%)” value was 1.4% and the “Sulfone (%)” value came out at 0.0%. Further, the “Chromophore Remaining (%)” value in data set [1] (3 wt % in Rhodiasolv IRIS) was 92.7%. In data set [1] (3 wt %, interpolated to 0.5 MJ/m^2 of energy exposure at 340 nm), the “Ratio of chromophore remaining relative to S340” value turned out to be 1.02. In addition, in data set [1], the “Photostability (in words)” value is listed as “high photostability”. Besides, in data set [2], the “PSS (SS)” value is 0.269 and the “λmax (nm)” value is recorded as 587 nm. In data set [3], the “YI (Yellowness Index)” value was determined as 3.59 and the “Abs @ 400 nm, RO (Absorption of ring-open isomer at 400 nm)” value came out at 0.097. Further, in data set [4] (ring-closed isomer), the “RC [O] (oxidation potential of ring-closed isomer)” value was 1.02. The “RO [O] (oxidation potential of ring-open isomer)” value in data set [4] (ring-open isomer) is 1.41.
With `COc1cc2oc(-c3ccc(C(C)(C)C)cc3)c(C3=C(c4cc(-c5cc6c(s5)C(C)(C)CC6(C)C)sc4-c4cc5c(s4)C(C)(C)CC5(C)C)C(F)(F)C(F)(F)C3(F)F)c2cc1OC` [Chromophore S404], in data set [1] (1 wt % in Rhodiasolv IRIS), the “Ketone (%)” value is recorded as 0.0%, the “Minus-2HF (%)” value was 0.0%, the “Minus-HF (%)” value is given as 0.0% and the “Sulfone (%)” value was determined as 0.0%. Also, in data set [1] (1 wt % in Rhodiasolv IRIS), the “Chromophore Remaining (%)” value is recorded as 100.0%. Besides, in data set [1] (setting [5]), the “Ratio of chromophore remaining relative to S340” value was 1.10 and the “Sum of degradation product percentages relative to the sum of degradation product percentages for S340” value was found to be 0.00. Moreover, the “Photostability (in words)” value in data set [1] is given as “high photostability”. Besides, in data set [2], the “PSS (SS)” value is 0.429 and the “λmax (nm)” value is given as 599 nm. Further, in data set [3], the “YI (Yellowness Index)” value is listed as 11.1 and the “Abs @ 400 nm, RO (Absorption of ring-open isomer at 400 nm)” value is given as 0.182.
